Data reported in patent publication US6610735B2, “Method, compositions and kits for increasing the oral bioavailability of pharmaceutical agents” (Baker Norton Pharmaceuticals, Inc., priority 1995, dated 2003).

What was measured:
[1] = Whole blood radioactivity of 3H-etoposide with/without oral cyclosporin (Example 6, NP960102); format: in vivo, rats; details: Grp C: CsA 5/PO, then Etoposide 1/PO + CsA 5/PO
[2] = Whole blood radioactivity of oral 3H-etoposide with oral ketoconazole (Example 7, NP960501); format: in vivo, rats; details: ketoconazole 2, 10, 50 mg/kg oral
[3] = male, Sprague-Dawley, rat, in vivo
[4] = system: highly resistant human KB carcinoma cells; details: cited from earlier work
[5] = Whole blood and urine radioactivity after radiolabeled paclitaxel with/without cyclosporin (Example 3)
[6] = Total radioactivity and unchanged paclitaxel pharmacokinetics, rats n = 10 (Tables 5A, 5B)
[7] = rat, in vivo, iv
[8] = Serum paclitaxel after IV or oral paclitaxel with/without oral cyclosporin (Example 1); format: in vivo, Sprague Dawley rats
[9] = rat, in vivo, po
[10] = in vivo, po; cited from earlier work

Question: Which F% [1] does the source give for COc1cc([C@@H]2c3cc4c(cc3[C@@H](O[C@@H]3O[C@@H]5CO[C@@H](C)O[C@H]5[C@H](O)[C@H]3O)[C@H]3COC(=O)[C@H]23)OCO4)cc(OC)c1O [Etoposide, etoposide] here?
Answer: about 96%

Question: Which results are given for CC(=O)N1CCN(c2ccc(OCC3COC(Cn4ccnc4)(c4ccc(Cl)cc4Cl)O3)cc2)CC1 (centres unmarked) [Ketoconazole, ketoconazole]?
Answer: effect on oral absorption of etoposide compared to etoposide alone [2]: did not enhance the oral absorption of etoposide; dose-response of oral absorption of radioactivity [3]: no further increase in oral absorption of radioactivity; reversal of MDR [4]: reverse MDR

Question: Which “AUC0-24, total radioactivity in blood” value ([5]; PO (B)) does the source give for CC(=O)O[C@H]1C(=O)[C@@]2(C)[C@H]([C@H](OC(=O)c3ccccc3)[C@]3(O)C[C@H](OC(=O)[C@H](O)[C@@H](NC(=O)c4ccccc4)c4ccccc4)C(C)=C1C3(C)C)[C@]1(OC(C)=O)CO[C@@H]1C[C@@H]2O [Paclitaxel, paclitaxel] here?
Answer: 3.2 μg eq × hr/ml

Question: And the Tmax ([5]; PO (B) column as printed)?
Answer: 25 h

Question: And the “AUC0-24, total radioactivity in blood” value ([5]; PO+CsA (C), CsA 1 hr prior to and simultaneously)?
Answer: 12.1 μg eq × hr/ml

Question: And the “AUC0-24hr, unchanged paclitaxel” value ([6]; PO + CsA)?
Answer: 4270 ng·h/mL

Question: What about the “AUC0-[…], unchanged paclitaxel” value ([6]; PO + CsA) of the same compound?
Answer: 5410 ng·h/mL

Question: What about the “AUC0-[…], unchanged paclitaxel” value ([6]; PO Dose) of the same compound?
Answer: 349 ng·h/mL

Question: And the “AUC0-24hr, unchanged paclitaxel” value ([6]; PO Dose 9 mg/kg)?
Answer: 314 ng·h/mL

Question: What about the “AUC0-00, total radioactivity” value ([6]; Paclitaxel Oral 9 mg/kg) of the same compound?
Answer: 4.5 μg equiv.hr/mL

Question: And the “AUC0-24hr, total radioactivity” value ([6]; Paclitaxel Oral 9 mg/kg)?
Answer: 1.4 μg equiv.hr/mL

Question: And the “AUC0-00, total radioactivity” value ([6]; Paclitaxel Oral + CsA)?
Answer: 15.0 μg equiv.hr/mL

Question: And the “AUC0-24hr, total radioactivity” value ([6]; Paclitaxel Oral + CsA 5 mg/kg 1 hr prior to and concomitantly)?
Answer: 8.1 μg equiv.hr/mL

Question: And the “% Dose in urine (4-24 hr)” value [7]?
Answer: 2.2 % Dose

Question: What about the “bioavailability of the paclitaxel in serum” value ([8]; oral paclitaxel in the absence of cyclosporin) of the same compound?
Answer: less than 1%

Question: What about the “bioavailability of the paclitaxel in serum” value ([8]; third group: cyclosporin 1 h prior to and with oral paclitaxel) of the same compound?
Answer: 6-7%

Question: And the “F (%) Based on AUC0-00, total radioactivity” value [9]?
Answer: 16.4%

Question: What about the “absorbed when administered orally” value [10] of the same compound?
Answer: less than 1%
